Results from US20210300940A1 (Merck Patent GmbH, priority 2018, published 2021).

Legend:
TLR7 = target: T1, TLR7 (Homo sapiens, UniProt Q9NYK1); assay: HEK/293 TLR7 Cell Assay; assay type: cell-based; conditions: TLR7/NFKb HEK cells, R848 agonist 10 uM final concentration, Steady-Glo readout; read-out: TLR7 potency
T1 construct: expressed in transfected cells; host or cells: HEK/293 cells carrying TLR7 and an NF-kB luciferase reporter
T1 sequence (Q9NYK1 27-1049): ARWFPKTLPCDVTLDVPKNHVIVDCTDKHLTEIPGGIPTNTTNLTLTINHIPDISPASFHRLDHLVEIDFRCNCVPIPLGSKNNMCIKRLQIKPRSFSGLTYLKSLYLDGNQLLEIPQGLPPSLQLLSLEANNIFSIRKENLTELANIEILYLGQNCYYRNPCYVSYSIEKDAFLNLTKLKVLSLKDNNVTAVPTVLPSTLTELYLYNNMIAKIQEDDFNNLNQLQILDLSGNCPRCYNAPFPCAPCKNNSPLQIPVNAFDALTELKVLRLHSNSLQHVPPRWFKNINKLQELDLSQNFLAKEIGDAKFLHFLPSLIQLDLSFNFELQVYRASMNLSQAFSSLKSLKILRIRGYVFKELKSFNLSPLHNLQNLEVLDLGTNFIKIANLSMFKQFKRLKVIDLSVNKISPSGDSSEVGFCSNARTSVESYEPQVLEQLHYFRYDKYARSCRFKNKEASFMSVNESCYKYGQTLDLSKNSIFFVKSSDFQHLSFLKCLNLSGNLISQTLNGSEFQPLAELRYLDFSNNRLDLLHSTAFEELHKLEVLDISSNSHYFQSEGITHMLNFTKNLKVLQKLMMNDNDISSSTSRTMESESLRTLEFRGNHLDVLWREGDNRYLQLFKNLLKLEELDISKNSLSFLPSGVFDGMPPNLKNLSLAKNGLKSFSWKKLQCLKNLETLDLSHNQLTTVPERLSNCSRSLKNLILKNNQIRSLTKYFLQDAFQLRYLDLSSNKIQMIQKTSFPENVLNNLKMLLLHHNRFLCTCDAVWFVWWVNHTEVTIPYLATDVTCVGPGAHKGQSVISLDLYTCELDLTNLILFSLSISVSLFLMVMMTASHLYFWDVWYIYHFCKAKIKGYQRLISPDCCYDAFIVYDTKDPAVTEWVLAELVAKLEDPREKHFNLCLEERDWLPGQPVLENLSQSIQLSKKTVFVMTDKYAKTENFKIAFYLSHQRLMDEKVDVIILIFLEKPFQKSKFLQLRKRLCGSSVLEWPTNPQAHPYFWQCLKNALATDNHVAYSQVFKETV
In short: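 TLR7/NF-κB reporter HEK293 cells, 5000/well, cultured 24 h, then preincubated 30 min with compound before R848 agonist (10 uM final). After 5 h stimulation, Steady-Glo luciferase luminescence read.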

TLR8 = target: T2, TLR8 (Homo sapiens, UniProt Q9NR97); assay: HEK/293 TLR8 Cell Assay; assay type: cell-based; conditions: HEK cells, R848 agonist 30 uM final concentration, Steady-Glo readout; read-out: TLR8 potency
T2 construct: expressed in transfected cells; host or cells: HEK/293 reporter cells (NF-kB luciferase)
T2 sequence (Q9NR97 27-1041): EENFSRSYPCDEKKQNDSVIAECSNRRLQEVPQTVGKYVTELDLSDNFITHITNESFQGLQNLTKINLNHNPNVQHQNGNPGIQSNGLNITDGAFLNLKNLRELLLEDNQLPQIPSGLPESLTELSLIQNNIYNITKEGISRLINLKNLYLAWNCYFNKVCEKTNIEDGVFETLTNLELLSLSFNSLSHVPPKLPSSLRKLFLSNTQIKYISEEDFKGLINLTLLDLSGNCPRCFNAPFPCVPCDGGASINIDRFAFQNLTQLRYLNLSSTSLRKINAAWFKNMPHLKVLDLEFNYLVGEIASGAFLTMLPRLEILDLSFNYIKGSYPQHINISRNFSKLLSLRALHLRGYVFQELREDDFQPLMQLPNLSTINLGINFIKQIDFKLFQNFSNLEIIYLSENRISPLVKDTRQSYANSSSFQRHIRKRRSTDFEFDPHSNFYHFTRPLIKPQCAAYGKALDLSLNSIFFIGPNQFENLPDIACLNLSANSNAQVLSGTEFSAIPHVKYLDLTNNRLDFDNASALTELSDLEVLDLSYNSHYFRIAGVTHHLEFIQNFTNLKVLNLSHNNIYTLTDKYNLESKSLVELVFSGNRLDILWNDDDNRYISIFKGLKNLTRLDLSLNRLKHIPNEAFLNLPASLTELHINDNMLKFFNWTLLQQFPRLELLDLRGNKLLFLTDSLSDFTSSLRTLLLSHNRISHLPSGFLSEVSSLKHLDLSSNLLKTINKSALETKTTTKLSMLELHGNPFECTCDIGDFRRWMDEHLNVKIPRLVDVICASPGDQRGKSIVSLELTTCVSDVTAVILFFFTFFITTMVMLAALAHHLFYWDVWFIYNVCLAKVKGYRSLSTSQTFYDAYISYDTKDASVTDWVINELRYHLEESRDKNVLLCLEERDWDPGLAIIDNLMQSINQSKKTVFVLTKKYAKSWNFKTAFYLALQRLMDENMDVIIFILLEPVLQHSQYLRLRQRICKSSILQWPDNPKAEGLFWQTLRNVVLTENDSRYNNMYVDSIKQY

Row | IC50 (TLR7) [µM] | IC50 (TLR8) [µM] | Compound
1 | < 0.075 | < 0.075 | Cc1ncc(N2C[C@@H](C)C[C@@H](NC(=O)CC3C4CC3CN(C)C4)C2)c2cccnc12 (stereo partly drawn) [Example 165, 2-(3-Methyl-3-aza-bicyclo[3.1.1]hept-6-yl)-N-[(3R,5S)-5-methyl-1-(8-methyl-naphthyridin-5-yl)-piperidin-3-yl]-acetamide]
2 | 0.075 to 0.15 | < 0.075 | C[C@H]1C[C@@H](NC(=O)CCN)CN(c2ccc(C(F)(F)F)c3ncccc23)C1 [Example 166, 3-Amino-N-[(3R,5S)-5-methyl-1-(8-trifluoromethyl-quinolin-5-yl)-piperidin-3-yl]-propionamide]
3 | < 0.075 | < 0.075 | C[C@H]1C[C@@H](NC(=O)[C@H](N)CO)CN(c2ccc(C(F)(F)F)c3ncccc23)C1 [Example 167]
4 | > 0.15 | 0.075 to 0.15 | CN[C@@H](CO)C(=O)N[C@@H]1C[C@H](C)CN(c2ccc(C(F)(F)F)c3ncccc23)C1 [Example 168, (S)-3-Hydroxy-2-methylamino-N-[(3R,5S)-5-methyl-1-(8-trifluoromethyl-quinolin-5-yl)-piperidin-3-yl]-propionamide]
5 | < 0.075 | < 0.075 | C[C@H]1C[C@@H](NC(=O)[C@@H](N)[C@@H](C)O)CN(c2ccc(C(F)(F)F)c3ncccc23)C1 [Example 169, (2S,3R)-2-Amino-3-hydroxy-N-[(3R,5S)-5-methyl-1-(8-trifluoromethyl-quinolin-5-yl)-piperidin-3-yl]-butyramide]
6 | 0.075 to 0.15 | < 0.075 | C[C@H]1C[C@@H](NC(=O)[C@@H](N)C(C)(C)O)CN(c2ccc(C(F)(F)F)c3ncccc23)C1 [Example 170, (S)-2-Amino-3-hydroxy-3-methyl-N-[(3R,5S)-5-methyl-1-(8-trifluoromethyl-quinolin-5-yl)-piperidin-3-yl]-butyramide]
7 | < 0.075 | < 0.075 | C[C@H](N)C(=O)N[C@@H]1C[C@H](C(F)(F)F)CN(c2ccc(C(F)(F)F)c3ncccc23)C1 [Example 171, (S)-2-Amino-N-[(3R,5S)-5-trifluoromethyl-1-(8-trifluoromethyl-quinolin-5-yl)-piperidin-3-yl]-propionamide]
8 | 0.075 to 0.15 | > 0.15 | N[C@H](CO)C(=O)N[C@@H]1C[C@H](C(F)(F)F)CN(c2ccc(C(F)(F)F)c3ncccc23)C1 [Example 172, (R)-2-Amino-3-hydroxy-N-[(3R,5S)-5-trifluoromethyl-1-(8-trifluoromethyl-quinolin-5-yl)-piperidin-3-yl]-propionamide]
9 | 0.075 to 0.15 | < 0.075 | C[C@H]1C[C@@H](NC(=O)[C@@H]2CCCN2)CN(c2ccc(C(F)(F)F)c3ncccc23)C1 [Example 176, (S)-Pyrrolidine-2-carboxylic acid [(3R,5S)-5-methyl-1-(8-trifluoromethyl-quinolin-5-yl)-piperidin-3-yl]-amide]
10 | 0.075 to 0.15 | < 0.075 | C[C@H]1C[C@@H](NC(=O)[C@H]2CCCN2)CN(c2ccc(C(F)(F)F)c3ncccc23)C1 [Example 177, (R)-Pyrrolidine-2-carboxylic acid [(3R,5S)-5-methyl-1-(8-trifluoromethyl-quinolin-5-yl)-piperidin-3-yl]-amide]
11 | > 0.15 | < 0.075 | C[C@H]1C[C@@H](NC(=O)[C@@](C)(N)CO)CN(c2ccc(C(F)(F)F)c3ncccc23)C1 [Example 178, (S)-2-Amino-3-hydroxy-2-methyl-N-[(3R,5S)-5-methyl-1-(8-trifluoromethyl-quinolin-5-yl)-piperidin-3-yl]-propionamide]
12 | < 0.075 | < 0.075 | C[C@H]1C[C@@H](NC(=O)C2CCNCC2)CN(c2ccc(C(F)(F)F)c3ncccc23)C1 [Example 179, Piperidine-4-carboxylic acid [(3R,5S)-5-methyl-1-(8-trifluoromethyl-quinolin-5-yl)-piperidin-3-yl]-amide]
13 | < 0.075 | < 0.075 | C[C@H]1C[C@@H](NC(=O)C2(N)CCCNC2)CN(c2ccc(C(F)(F)F)c3ncccc23)C1 (stereo partly drawn) [Example 180, 3-Amino-piperidine-3-carboxylic acid [(3R,5S)-5-methyl-1-(8-trifluoromethyl-quinolin-5-yl)-piperidin-3-yl]-amide]
14 | < 0.075 | < 0.075 | C[C@H]1C[C@@H](NC(=O)C2CCCCN2)CN(c2ccc(C(F)(F)F)c3ncccc23)C1 (stereo partly drawn) [Example 181, Piperidine-2-carboxylic acid [(3R,5S)-5-methyl-1-(8-trifluoromethyl-quinolin-5-yl)-piperidin-3-yl]-amide]
15 | < 0.075 | < 0.075 | C[C@H]1C[C@@H](NC(=O)C2CCN(C(=O)[C@@H](N)[C@@H](C)O)CC2)CN(c2ccc(C(F)(F)F)c3ncccc23)C1 [Example 182, 1-((2S,3R)-2-Amino-3-hydroxy-butyryl)-piperidine-4-carboxylic acid [(3R,5S)-5-methyl-1-(8-trifluoromethyl-quinolin-5-yl)-piperidin-3-yl]-amide]

Row | Compound | IC50 (TLR7) [µM] | IC50 (TLR8) [µM]
16 | C[C@H]1C[C@@H](NC(=O)[C@H](O)C(C)(C)O)CN(c2ccc(C#N)c3nccnc23)C1 [Example 162, (R)—N-[(3R,5S)-1-(8-Cyano-quinoxalin-5-yl)-5-methyl-piperidin-3-yl]-2,3-dihydroxy-3-methyl-butyramide] | 0.075 to 0.15 | > 0.15
17 | C[C@H]1C[C@@H](NC(=O)[C@@H](N)C(C)(C)O)CN(c2ccc(C#N)c3nccnc23)C1 [Example 173, (S)-2-Amino-N-[(3R,5S)-1-(8-cyano-quinoxalin-5-yl)-5-methyl-piperidin-3-yl]-3-hydroxy-3-methyl-butyramide] | < 0.075 | < 0.075
18 | C[C@H]1C[C@@H](NC(=O)[C@H]2CCCN2)CN(c2ccc(C#N)c3nccnc23)C1 [Example 174, (R)-Pyrrolidine-2-carboxylic acid [(3R,5S)-1-(8-cyano-quinoxalin-5-yl)-5-methyl-piperidin-3-yl]-amide] | > 0.15 | 0.075 to 0.15
19 | C[C@H]1C[C@@H](NC(=O)[C@@H]2CCCN2)CN(c2ccc(C#N)c3nccnc23)C1 [Example 175, (S)-Pyrrolidine-2-carboxylic acid [(3R,5S)-1-(8-cyano-quinoxalin-5-yl)-5-methyl-piperidin-3-yl]-amide] | 0.075 to 0.15 | < 0.075
20 | N#Cc1ccc(N2C[C@H](NC(=O)C3CCCCN3)C[C@H](C(F)(F)F)C2)c2cccnc12 (stereo partly drawn) [Example 183, Piperidine-2-carboxylic acid [(3R,5S)-1-(8-cyano-quinolin-5-yl)-5-trifluoromethyl-piperidin-3-yl]-amide] | 0.075 to 0.15 | 0.075 to 0.15
